From ChEMBL document CHEMBL3046442, “Synthesis and Acaricidal Activity of Bicyclic Pyrazole-3-carboxamide Derivatives” (1992) come the findings set out here.

Holding throughout (format): functional
The test system of experiment [1] is Tetranychus urticae. As to the kind of experiment: Acaricidal activity against Tetranychus urticae (two-spotted spider mite) infested kidney bean leaf assessed as mortality at 50 ppm after 5 days. Conditions: 120 h.
For experiment [2], the system named is Tetranychus urticae. The experiment is described as follows: Acaricidal activity against Tetranychus urticae (two-spotted spider mite) infested kidney bean leaf assessed as mortality at 3.1 ppm after 5 days. Conditions: 120 h.
The subject of experiment [3] is Tetranychus urticae. The experiment is described as follows: Acaricidal activity against Tetranychus urticae (two-spotted spider mite) infested kidney bean leaf assessed as mortality at 12.5 ppm after 5 days. The settings on record: 120 h.
Experiment [4] has as its system Tetranychus urticae. The experiment is described as follows: Acaricidal activity against Tetranychus urticae (two-spotted spider mite) infested kidney bean leaf assessed as mortality at 200 ppm after 5 days. Conditions: 120 h.
In experiment [5] the test system is Tetranychus urticae. As to the kind of experiment: Adulticidal activity against adult Tetranychus urticae (two-spotted spider mite) infested kidney bean leaf disk after 2 days. Conditions: foliar, 48 h.
Experiment [6] deals with Panonychus citri. As to the kind of experiment: Ovicidal activity against Panonychus citri eggs laid on compound-treated mandarian orange measured after 7 days. Conditions: 168 h.
Experiment [7] deals with Tetranychus urticae. As to the kind of experiment: Ovicidal activity against Tetranychus urticae (two-spotted spider mite) eggs laid on compound-treated kidney bean leaf disk measured after 7 days. Conditions: foliar, 168 h.
The test system of experiment [8] is Panonychus citri. As to the kind of experiment: Adulticidal activity against adult Panonychus citri infested mandarian orange after 2 days. The settings on record: 48 h.

In brackets after ≈: the same amount, converted by molar mass.

Broadly, the mortality is the share of the test organisms that died. For the compound `Cn1nc2c(c1C(=O)NCc1ccc(C(C)(C)C)cc1)CCCC2`, in the experiment with Tetranychus urticae [1], the mortality at 50 ppm turned out to be 1%. Besides, the mortality at 3.1 ppm with Tetranychus urticae [2] amounted to 0%. Also, in the experiment on Tetranychus urticae [3], the mortality at 12.5 ppm was found to be 0%. Moreover, the mortality at 200 ppm with Tetranychus urticae [4] came to 2%.

With `CC1CCCc2c1nn(C)c2C(=O)NCc1ccc(C(C)(C)C)cc1` (stereo unspecified), in the experiment on Tetranychus urticae [1], the mortality at 50 ppm stood at 0%. In addition, the mortality at 3.1 ppm with Tetranychus urticae [2] amounted to 0%. Moreover, in the experiment on Tetranychus urticae [3], the mortality at 12.5 ppm came to 0%. Besides, the mortality at 200 ppm in the experiment on Tetranychus urticae [4] stood at 0%.

On to `CC1CC(C)c2c1nn(C)c2C(=O)NCc1ccc(C(C)(C)C)cc1` (stereo unspecified), for which, in the experiment on Tetranychus urticae [1], the mortality at 50 ppm was 0%. Moreover, the mortality at 3.1 ppm in the experiment with Tetranychus urticae [2] amounted to 0%. Further, the mortality at 12.5 ppm with Tetranychus urticae [3] worked out at 0%. For the same compound, the mortality at 200 ppm in the experiment on Tetranychus urticae [4] came out at 1%.

Consider `CCC1CCc2c1nn(C)c2C(=O)NCc1ccc(C(C)(C)C)cc1` (stereo unspecified), for which the mortality at 50 ppm with Tetranychus urticae [1] was 0%. Further, in the experiment on Tetranychus urticae [2], the mortality at 3.1 ppm came to 0%. Further, the mortality at 12.5 ppm with Tetranychus urticae [3] came to 0%. In addition, in the experiment on Tetranychus urticae [4], the mortality at 200 ppm is 0%.

On to `Cn1nc2c(c1C(=O)NCc1ccc([Si](C)(C)C)cc1)CCC2`, for which the mortality at 50 ppm with Tetranychus urticae [1] was 3%. Also, in the experiment with Tetranychus urticae [2], the mortality at 3.1 ppm was 1%. For the same compound, the mortality at 12.5 ppm with Tetranychus urticae [3] is 3%. Also, the mortality at 200 ppm in the experiment on Tetranychus urticae [4] was 3%.

Broadly, the LC50 is the concentration that kills 50% of the test population. Low values mean greater toxicity, high ones lower toxicity. Take `CC1CCc2c1nn(C)c2C(=O)NCc1ccc(C(C)(C)C)cc1` (stereo unspecified): the LC50 is 2.1 µg/mL (≈ 6.45 µM) with Tetranychus urticae [5], 6.3 µg/mL (≈ 19.4 µM) in the experiment on Panonychus citri [6], 1.7 µg/mL (≈ 5.22 µM) in the experiment on Tetranychus urticae [7] and 0.42 µg/mL (≈ 1.29 µM) with Panonychus citri [8]. The mortality at 50 ppm in the experiment with Tetranychus urticae [1] turned out to be 3%. Besides, the mortality at 3.1 ppm in the experiment on Tetranychus urticae [2] came to 3%. For the same compound, the mortality at 12.5 ppm with Tetranychus urticae [3] was 3%. The mortality at 200 ppm in the experiment with Tetranychus urticae [4] turned out to be 3%.

With `Cn1nc2c(c1C(=O)NCc1ccc(CC(C)(C)C)cc1)CCC2`, the mortality at 50 ppm in the experiment on Tetranychus urticae [1] is 1%. Also, in the experiment with Tetranychus urticae [2], the mortality at 3.1 ppm came to 0%. Moreover, in the experiment with Tetranychus urticae [3], the mortality at 12.5 ppm amounted to 0%. In addition, in the experiment with Tetranychus urticae [4], the mortality at 200 ppm is 3%.

Turning to `CCC(C)c1ccc(CNC(=O)c2c3c(nn2C)CCC3)cc1` (stereo unspecified), the mortality at 50 ppm in the experiment on Tetranychus urticae [1] is 3%. Also, in the experiment on Tetranychus urticae [2], the mortality at 3.1 ppm worked out at 0%. Moreover, the mortality at 12.5 ppm with Tetranychus urticae [3] was determined as 1%. Also, the mortality at 200 ppm with Tetranychus urticae [4] turned out to be 3%.

In the case of `CC(C)Cc1ccc(CNC(=O)c2c3c(nn2C)CCC3)cc1`, in the experiment with Tetranychus urticae [1], the mortality at 50 ppm turned out to be 0%. Also, the mortality at 3.1 ppm in the experiment on Tetranychus urticae [2] turned out to be 0%. In addition, the mortality at 12.5 ppm with Tetranychus urticae [3] amounted to 0%. The mortality at 200 ppm in the experiment on Tetranychus urticae [4] amounted to 1%.

For `CCCCc1ccc(CNC(=O)c2c3c(nn2C)CCC3)cc1`, the mortality at 50 ppm in the experiment on Tetranychus urticae [1] was 0%. For the same compound, the mortality at 3.1 ppm in the experiment with Tetranychus urticae [2] is 0%. In the experiment with Tetranychus urticae [3], the mortality at 12.5 ppm came out at 0%. Besides, the mortality at 200 ppm with Tetranychus urticae [4] was determined as 2%.

`CC(C)c1ccc(CNC(=O)c2c3c(nn2C)CCC3)cc1`: the mortality at 50 ppm in the experiment on Tetranychus urticae [1] was found to be 2%. Also, the mortality at 3.1 ppm in the experiment on Tetranychus urticae [2] stood at 0%. For the same compound, the mortality at 12.5 ppm in the experiment on Tetranychus urticae [3] amounted to 1%. Further, the mortality at 200 ppm with Tetranychus urticae [4] amounted to 3%.

In the case of `Cc1ccc(CNC(=O)c2c3c(nn2C)CCC3)cc1`, in the experiment with Tetranychus urticae [1], the mortality at 50 ppm turned out to be 0%. In addition, in the experiment with Tetranychus urticae [2], the mortality at 3.1 ppm was found to be 0%. Besides, in the experiment on Tetranychus urticae [3], the mortality at 12.5 ppm was determined as 0%. In the experiment with Tetranychus urticae [4], the mortality at 200 ppm was determined as 0%.

`Cn1nc2c(c1C(=O)NCc1ccccc1)CCC2`: the mortality at 50 ppm in the experiment on Tetranychus urticae [1] came to 0%. Further, in the experiment with Tetranychus urticae [2], the mortality at 3.1 ppm was determined as 0%. The mortality at 12.5 ppm with Tetranychus urticae [3] is 0%. The mortality at 200 ppm in the experiment with Tetranychus urticae [4] came to 0%.

For `Cn1nc2c(c1C(=O)SCc1ccc(C(C)(C)C)cc1)CCC2`, the mortality at 50 ppm with Tetranychus urticae [1] stood at 0%. Besides, the mortality at 200 ppm with Tetranychus urticae [4] is 0%.

Turning to `Cn1nc2c(c1C(=O)OCc1ccc(C(C)(C)C)cc1)CCC2`, the mortality at 50 ppm with Tetranychus urticae [1] is 0%. Also, the mortality at 200 ppm in the experiment with Tetranychus urticae [4] came out at 1%.

For the compound `Cn1nc2c(c1C(=S)NCc1ccc(C(C)(C)C)cc1)CCC2`, the mortality at 50 ppm with Tetranychus urticae [1] was 0%. In addition, the mortality at 200 ppm in the experiment with Tetranychus urticae [4] worked out at 0%.

With `CN(Cc1ccc(C(C)(C)C)cc1)C(=O)c1c2c(nn1C)CCC2`, the mortality at 50 ppm in the experiment on Tetranychus urticae [1] amounted to 0%. Further, the mortality at 200 ppm with Tetranychus urticae [4] came to 0%.

As to `Cn1nc2c(c1C(=O)NCCc1ccc(C(C)(C)C)cc1)CCC2`, in the experiment with Tetranychus urticae [1], the mortality at 50 ppm worked out at 0%. Further, the mortality at 200 ppm in the experiment with Tetranychus urticae [4] worked out at 0%.

Consider `CC(C)(C)c1ccc(CNC(=O)c2c3c(nn2-c2ccccc2)CCC3)cc1`, for which the mortality at 50 ppm in the experiment with Tetranychus urticae [1] was determined as 0%. In the experiment on Tetranychus urticae [4], the mortality at 200 ppm came out at 0%.

As to `CC(C)(C)c1ccc(CNC(=O)c2c3c(nn2C(C)(C)C)CCC3)cc1`, the mortality at 50 ppm with Tetranychus urticae [1] stood at 0%. In the experiment with Tetranychus urticae [4], the mortality at 200 ppm came out at 0%.

As to `CCCCn1nc2c(c1C(=O)NCc1ccc(C(C)(C)C)cc1)CCC2`, the mortality at 50 ppm in the experiment on Tetranychus urticae [1] was determined as 0%. In the experiment with Tetranychus urticae [4], the mortality at 200 ppm amounted to 0%.

As for `CC(C)n1nc2c(c1C(=O)NCc1ccc(C(C)(C)C)cc1)CCC2`, in the experiment with Tetranychus urticae [1], the mortality at 50 ppm turned out to be 0%. In addition, the mortality at 200 ppm with Tetranychus urticae [4] came out at 0%.

Consider `CCn1nc2c(c1C(=O)NCc1ccc(C(C)(C)C)cc1)CCC2`, for which, in the experiment on Tetranychus urticae [1], the mortality at 50 ppm came out at 0%. The mortality at 200 ppm with Tetranychus urticae [4] is 0%.

With `Cn1nc2c(c1C(=O)NCc1ccc(C(C)(C)C)cc1)CCC2`, the mortality at 50 ppm with Tetranychus urticae [1] worked out at 3%. For the same compound, the mortality at 3.1 ppm with Tetranychus urticae [2] turned out to be 2%. Further, in the experiment on Tetranychus urticae [3], the mortality at 12.5 ppm turned out to be 3%. In addition, in the experiment with Tetranychus urticae [4], the mortality at 200 ppm was determined as 3%.

With `CC(C)(C)c1ccc(CNC(=O)c2[nH]nc3c2CCC3)cc1`, the mortality at 50 ppm in the experiment on Tetranychus urticae [1] is 0%. The mortality at 200 ppm with Tetranychus urticae [4] amounted to 0%.

For `CCc1nn(C)c(C(=O)NCc2ccc(C(C)(C)C)cc2)c1Cl` [TEBUFENPYRAD], the median lethal concentration (LC50) turned out to be 3.7 µg/mL (≈ 11.1 µM) with Tetranychus urticae [5], 3.9 µg/mL (≈ 11.7 µM) in the experiment with Panonychus citri [6], 0.96 µg/mL (≈ 2.88 µM) in the experiment with Tetranychus urticae [7] and 0.5 µg/mL (≈ 1.5 µM) in the experiment on Panonychus citri [8].
